Laboratory results as given in PubChem BioAssay AID463199 (Broad Institute, 2010).
Calls of active or inactive are those of the source.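 Rule for the calls: active = AC50, the dose giving half-maximal effect, exceeds a fixed cutoff for a compound that rescues yeast growth under heat; inactive = the rest, inconclusive results apart.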

tested on: S. cerevisiae Burl-1 ts mutant growth, BacTiter-Glo, 38.5C 24 h; experiment: growth induction of Burl-1 ts yeast mutant, dose response, counter-screen for SUMOylation pathway inhibitor project, whole organism, S. cerevisiae, luminescence (AID 463199)

SMILES	AC50
CC(C)(C)C(=O)C(Cl)C(=O)Nc1ccccc1 (configuration not stated)	> 42 µM (inactive)
Cc1cc(NC(=O)CSc2ncn(-c3ccccc3)n2)no1	> 42 µM (inactive)
Cc1c(C(=O)NC(C)c2ccc(-n3ccnc3)cc2)cccc1[N+](=O)[O-] (configuration not stated)	> 42 µM (inactive)
Cc1cc(C)cc(C(=O)NC(CC(N)=O)c2ccc(N3CCC(N4CCCCC4)CC3)c([N+](=O)[O-])c2)c1 (configuration not stated)	> 42 µM (inactive)
Cc1ccc(S(=O)(=O)Oc2ccc(/C=C3\N=C(c4cccc(C)c4)OC3=O)cc2)cc1	> 42 µM (inactive)
CCCCOc1ccc(C(=O)Nc2ccc(N3CCN(C)CC3)cc2)cc1	> 42 µM (inactive)
Cc1c(NC(=O)C(C)Sc2nnc(-c3ccccc3)o2)c(=O)n(-c2ccccc2)n1C (configuration not stated)	> 42 µM (inactive)
OCC[C@@H]1C[C@H](O)[C@@H](O)[C@]2(CCc3ccccc3CO2)O1	> 42 µM (inactive)
Cc1sc(NC(=O)c2ccc(Br)s2)c(C(N)=O)c1C	> 42 µM (inactive)
Nc1nnc(CC(=O)N2CCCCC2)s1	> 42 µM (inactive)
O=C(CSCc1ccc(Cl)cc1)N1CCCCC1	> 42 µM (inactive)
COc1cccc(CN(C)CC2CCCN(CCc3ccc(Cl)cc3)C2)c1OC (configuration not stated)	> 42 µM (inactive)
CC(C)(C)NC(=O)C1Cc2ccccc2CN1S(=O)(=O)c1ccc(F)cc1 (configuration not stated)	> 42 µM (inactive)
COc1cc(C(=O)NCCOc2cc(C)cc(C)c2)cc(OC)c1OC	> 42 µM (inactive)
COCCN1C=C(C(=O)OC)C(c2cc3c(cc2Br)OCO3)C(C(=O)OC)=C1	> 42 µM (inactive)
COc1ccccc1CNC(=O)C1CCC(=O)N1C(C)C (configuration not stated)	> 42 µM (inactive)
COc1ccc(C(=O)N/C(=C\c2cc(OC)c(OC)cc2[N+](=O)[O-])C(=O)NCCO)cc1	> 42 µM (inactive)
O=C(Nc1cnn(Cc2ccc(Cl)cc2)c1)c1ccc([N+](=O)[O-])cc1	> 42 µM (inactive)
N#Cc1cc([N+](=O)[O-])cnc1NCC(O)CO (configuration not stated)	> 42 µM (inactive)
O=C(c1cc(-c2ccc(Cl)c(Cl)c2)on1)N1CCN(c2ccccc2)CC1	> 42 µM (inactive)
Cc1cccc(N=C2C(=O)Nc3c(Cl)cccc32)c1	> 42 µM (inactive)
CCOC(=O)c1cnc2ccc(Cl)cc2c1N1CCN(C)CC1	> 42 µM (inactive)
Cc1ccc(NC(=O)NNC(=O)Cn2nc(-c3ccccc3)c(-c3ccccc3)c(C#N)c2=O)cc1	> 42 µM (inactive)
COCCCn1c2nc3ccccc3nc2c2c(=O)n(Cc3ccc(Cl)cc3)cnc21	> 42 µM (inactive)
CC(=O)Nc1sc2c(c1C(c1ccc(F)cc1)N1CCOCC1)CCCC2 (configuration not stated)	> 42 µM (inactive)

SMILES	AC50
CCN(CC)CCNC(=O)CCn1c(=S)[nH]c2cc3c(cc2c1=O)OCO3	> 42 µM (inactive)
N#Cc1c(-c2ccco2)cc(-c2cccnc2)nc1N	> 42 µM (inactive)
O=C(c1ccc(Br)cc1)C(CN1CCOCC1)c1ccccc1 (configuration not stated)	1.86 µM
Cc1c(=O)n(OCc2ccccn2)c2ccccc2[n+]1[O-]	> 42 µM (inactive)
Cc1cc(C)c2nc(-c3cccnc3)cc(C(=O)Nc3ccc(S(=O)(=O)Nc4onc(C)c4C)cc3)c2c1	> 42 µM (inactive)
COc1ccc(CC(=O)NCCN2CCOCC2)cc1	> 42 µM (inactive)
COc1ccc(N2CCN(CCCNC(=O)C(=O)c3c(C)[nH]c4ccccc34)CC2)cc1	> 21 µM (inactive)
O=C(NCC(=O)N(c1ccccc1)C(C(=O)NCC1CCCO1)c1ccccc1)c1cccs1 (configuration not stated)	> 42 µM (inactive)
CC(C)C(=O)NCCSc1c[nH]c2ccccc12	> 42 µM (inactive)
Cc1ccc(S(=O)(=O)/N=C(/Nc2ccc([N+](=O)[O-])cc2[N+](=O)[O-])c2ccccc2)cc1	> 42 µM (inactive)
COCC(=O)n1nc(-c2ccc(Cl)cc2)nc1NCc1ccc(F)cc1	> 42 µM (inactive)
O=S1(=O)CC(N2CCCCC2)C(N2CCCCC2)C1 (configuration not stated)	> 42 µM (inactive)
O=C(CCNC(=O)c1ccccc1)Nc1cccnc1	> 42 µM (inactive)
CN(C(=O)c1ccc(-c2nn(C)c(=O)c3ccccc23)cc1)C1CCCCC1	> 42 µM (inactive)
CN(CC(=O)Nc1cccc(F)c1)CC(=O)Nc1cccc(S(N)(=O)=O)c1	> 42 µM (inactive)
O=C1NC(c2ccccc2)C(C(=O)c2cccs2)C(O)(C(F)(F)F)N1 (configuration not stated)	> 42 µM (inactive)
CC(=O)c1c(Nc2cccc(F)c2)oc(C)cc1=O	> 42 µM (inactive)
Cn1c(CN2CCOCC2)nnc1SCC(=O)Nc1cc(Cl)ccc1Cl	> 42 µM (inactive)
CCOC(=O)c1cccc(NC(=O)C2CCCN(S(=O)(=O)c3c(C)n[nH]c3C)C2)c1 (configuration not stated)	> 42 µM (inactive)
Cc1cccc(OCCN2CSC(=S)N(C)C2)c1	31.6 µM
O=C(Nc1ccc(F)cc1F)N1CCCN(c2ccc(C(F)(F)F)cn2)CC1	> 42 µM (inactive)
O=C1NC2(CCCCC2)NN1c1ccccc1	> 42 µM (inactive)
CCOc1ccc(NC(=O)CN(C)C(=O)c2ccc(OCc3ccccc3)c(OC)c2)cc1OCC	> 42 µM (inactive)
CN(C)S(=O)(=O)c1cccc(NC(=O)C(c2ccccc2)c2ccccc2)c1	> 42 µM (inactive)
CCc1nnc(NC(=O)CSc2ccc(-c3ccc(-n4cccn4)cc3)nn2)s1	> 42 µM (inactive)

SMILES	AC50
CN(C)C(=O)CN1C(=O)c2cccc3cccc1c23	> 42 µM (inactive)
COC(=O)CCC(=O)OC1(C)C(=O)C=C2C=C(C3CC3)N(Cc3ccc4c(c3)OCO4)C=C2C1=O (configuration not stated)	> 42 µM (inactive)
Cn1c(=O)c2c(nc(N/N=C/c3ccc(OC(=O)c4ccco4)cc3)n2Cc2ccccc2Cl)n(C)c1=O	> 42 µM (inactive)
CN1C(=O)C(O)(CC(=O)c2ccccc2O)c2cc(Br)ccc21 (configuration not stated)	> 42 µM (inactive)
CCCCOc1ccc(C(O)C(CN2CCOCC2)c2ccccc2)cc1 (configuration not stated)	> 42 µM (inactive)
O=C(COc1ncnc2ccccc12)Nc1ccc(Cl)c(S(=O)(=O)N2CCOCC2)c1	> 42 µM (inactive)
CN(NC(=O)c1ccccc1F)c1nc(C(F)(F)F)nc2ccccc12	> 42 µM (inactive)
COc1cc(CNCc2ccc3c(c2)OCO3)c([N+](=O)[O-])cc1OC	> 42 µM (inactive)
COc1ccc(C(=O)NC(=S)Nc2ccc(CN3CCCCC3)cc2)cc1Cl	> 42 µM (inactive)
COC(=O)c1sccc1NC(=O)CC1C(=O)NCCN1C(=O)Nc1ccc(F)cc1F (configuration not stated)	> 42 µM (inactive)
CCOC(=O)c1c(/N=C/C2C(=O)CCCC2=O)sc2c1CCCC2	> 42 µM (inactive)
CCCCc1nnc(NC(=O)CSc2nc(O)c(-c3ccccc3)c(=O)[nH]2)s1	> 42 µM (inactive)
O=C(O)C1CCCN1C(=O)c1cncc(Br)c1 (configuration not stated)	> 42 µM (inactive)
CC[C@H]1CCCCc2ccccc2[C@@H](C(=O)C[C@@H](O)CC(C)=O)OC1=O	> 42 µM (inactive)
CCc1nc2ccccc2c(C(=O)OC2CCCCC2=O)c1C (configuration not stated)	> 42 µM (inactive)
COc1ccc(NC(=O)CSc2nnc(-c3ccccn3)n2-c2ccccc2)cc1OC	> 42 µM (inactive)
O=C(c1cn(-c2ccccc2)nc1-c1cccs1)N1CCOCC1	> 42 µM (inactive)
CCN(CC)c1ncnc2ccc(Br)cc12	> 42 µM (inactive)
CCOC(=O)N1CCN(C(=O)c2ccc3ccccc3c2)CC1	> 42 µM (inactive)
Cn1c(-c2sc3cc(C(F)(F)F)cnc3c2-c2cccs2)n[nH]c1=S	> 42 µM (inactive)
COCCNC(=O)NC(=O)CSc1nc(C)c(C)c(C)n1	> 42 µM (inactive)
CCOC(=O)N1CCN(C(=O)c2ccc(CS(=O)(=O)c3c(Cl)cccc3Cl)o2)CC1	> 42 µM (inactive)
Cc1ccnc(NC(=O)CNC(=O)c2ccc(Br)o2)c1	> 42 µM (inactive)
CNc1csc(C)c(C)c1=O	> 42 µM (inactive)
Cc1ccccc1-c1nnnn1C1CCS(=O)(=O)C1 (configuration not stated)	> 42 µM (inactive)

SMILES	AC50
COc1ccc(S(=O)(=O)N2CCCC2CNC(=O)C(=O)NCc2ccccn2)cc1 (configuration not stated)	> 42 µM (inactive)
COc1ccccc1N1CCN(C(=O)c2sc3ncnc(N4CCN(c5ccccn5)CC4)c3c2C)CC1	> 42 µM (inactive)
CCn1ncc(Br)c1C(=O)Nc1ccc(OC(F)(F)F)cc1	> 42 µM (inactive)
CCOc1ccccc1N(CC(=O)Nc1ccccc1C(=O)N1CCCC1)S(C)(=O)=O	> 42 µM (inactive)
O=C(O)c1cc(S(=O)(=O)Nc2ccc(OCc3ccccc3)cc2)ccc1Br	> 42 µM (inactive)
CCc1ccc(-n2c(Cc3ccccc3)n[nH]c2=S)cc1	> 42 µM (inactive)
Cc1cc(NC(=O)CCC(=O)N(c2cccnc2)C(C(=O)NC2CCCC2)c2ccccc2)no1 (configuration not stated)	> 42 µM (inactive)
CSc1nnc2c3cc(C)ccc3n(Cc3ccccc3)c2n1	> 42 µM (inactive)
CN1CCCC(n2nc(Cc3ccc(Cl)cc3)c3ccccc3c2=O)CC1 (configuration not stated)	> 42 µM (inactive)
CCOC(=O)c1c(N)sc(C(=O)N2CCCC(C(N)=O)C2)c1C (configuration not stated)	> 42 µM (inactive)
Nc1ccc(S(=O)(=O)NNC(=O)C(=O)NNc2ccccc2)cc1	> 42 µM (inactive)
CC(=O)C(C(c1ccccc1)c1c[nH]c2ccccc12)[N+](=O)[O-] (configuration not stated)	> 42 µM (inactive)
CCN1C(=NCc2cccc(Cl)c2)N[C@@H](c2cccc(F)c2)C(C(=O)OC)=C1C	> 42 µM (inactive)
C=CCNc1nnc(SC2CC(=O)N(c3ccc(OCCC)cc3)C2=O)s1 (configuration not stated)	> 42 µM (inactive)
Cc1cc2c3c(c1)C1(SCC(=O)N1c1ccc(F)cc1)C(=O)N3C(C)(C)CC2C (configuration not stated)	> 42 µM (inactive)
Cc1ccc(C(=O)/C=C/c2ccc(-c3ccccc3[N+](=O)[O-])o2)cc1	> 42 µM (inactive)
COc1cc(/C=C2\NC(=S)N(C)C2=O)ccc1OCc1cccc(F)c1	> 42 µM (inactive)
CC(C)CN(C(=O)COC(=O)c1ccc2c(c1)OCO2)c1c(N)n(Cc2ccccc2)c(=O)[nH]c1=O	> 42 µM (inactive)
CC(=O)N(C(C)=O)C1=C(C#N)C2(CCCCC2)Cc2ccccc21	> 42 µM (inactive)
N#CC(CC(=O)c1ccc(F)cc1)c1ccc2c(c1)OCO2 (configuration not stated)	> 42 µM (inactive)
O=C(Nc1cc(F)ccc1F)C1CCCO1 (configuration not stated)	> 42 µM (inactive)
O=C(Nc1ccccc1F)C1CCN(C(=O)Cc2ccccc2)CC1	> 42 µM (inactive)
